Assay results: patent US8722887B2, “Sulfonylpyrazole and sulfonylpyrazoline carboxamidine derivatives as 5-HT6 antagonists” (Abbvie Bahamas, Ltd., priority 2006, dated 2014)
Where two headings read alike, the source gives them in different places.

Tests used:
[1] = Sleight, 1998; cited from earlier work
5-HT6 receptor [2] = molecular target: T1, 5-HT6 receptor (Homo sapiens, UniProt P50406); conditions: 5-HT6 receptor (Sleight, 1998); cited from earlier work
[3] = Rogers, 1999; cited from earlier work
5-HT6 receptor [4] = molecular target: T1, 5-HT6 receptor; experiment: In vitro affinity for human 5-HT6 receptors, [3H]-LSD binding in CHO cell membranes; design: host or cells: CHO/Gα16/mtAEQ/h5HT6-A1 (CHO AequoScreen recombinant cell line); conditions: [3H]-LSD 5.0 nM, membranes of CHO cells transfected with human 5-HT6; read-out: 5-HT6 pKi (converted)
Procedure: Affinity for human 5-HT6 receptors was measured in a membrane preparation of CHO-cells transfected with human 5-HT6 receptors by binding studies using [^3H]-N-Methyl-Lysergic acid diethylamide ([^3H]-LSD) as ligand. […] CHO/Gα16/mtAEQ/h5HT6-A1 cells were grown in T-flasks in CHO-S-SFM II medium (Gibco BRL), supplemented with 1% dialysed FCS, 2 mM L-glutamine, Geneticin 500 μg/ml and Zeocin 200 μg/ml. […] After thawing cells were centrifuged during 3 minutes at 1500 g at 4° C. […] The assay was established so as to achieve steady state conditions and to optimize specific binding. For the 5-HT6 receptor, membranes from 5.10^5 cells were incubated with 5.0 nM [^3H]-LSD at 37° C. for 30 minutes. Nonspecific binding was determined using 10^−5 M serotonin. Assays were terminated by vacuum filtration through glass fiber filters (GF/B) which had been pretreated with 0.5% polyethyleneimine. Total and bound radioactivity was determined by liquid scintillation counting. […] Compounds were tested at a 4 log concentration range; all determinations were performed as triplicates. IC50 values were determined by non-linear regression analysis using Hill equation curve fitting. The inhibition constants (Ki-values) were calculated from the Cheng-Preushoff equation: Ki=IC50:(1+L/Kd) wherein L represents the concentration radioligand ([^3H]-LSD) in the assay, and Kd the affinity of the radioligand for the receptor. Results are expressed as pKi-values, means±SD of at least three separate experiments.

5-HT6 receptor [5] = molecular target: T1, 5-HT6 receptor; experiment: In vitro functional activity (antagonism) on human 5-HT6 receptors, CHO-human-5HT6-Aequorin assay; assay type: cell-based; design: host or cells: CHO/Gα16/mtAEQ/h5HT6-A1 (CHO AequoScreen recombinant cell line)
Procedure: Human-5-HT6-Aequorin cells express mitochondrial targeted apo-Aequorin. Cells have to be loaded with coelanterazine, in order to reconstitute active Aequorin. […] This luminescent response is dependent on the agonist concentration. Luminescence is measured using the MicroBeta Jet (Perkin Elmer). Agonistic effects of compounds are expressed as pEC50. […] Compounds were tested at a 5 log concentration range, and 3 independent experiments were performed in duplicate.

[6] = antagonism of 10^-8 M α-methylserotonin induced luminescence, CHO-human-5HT6-Aequorin cells, read-out: 5-HT6 pA2 (converted)

T1 sequence (P50406 whole entry): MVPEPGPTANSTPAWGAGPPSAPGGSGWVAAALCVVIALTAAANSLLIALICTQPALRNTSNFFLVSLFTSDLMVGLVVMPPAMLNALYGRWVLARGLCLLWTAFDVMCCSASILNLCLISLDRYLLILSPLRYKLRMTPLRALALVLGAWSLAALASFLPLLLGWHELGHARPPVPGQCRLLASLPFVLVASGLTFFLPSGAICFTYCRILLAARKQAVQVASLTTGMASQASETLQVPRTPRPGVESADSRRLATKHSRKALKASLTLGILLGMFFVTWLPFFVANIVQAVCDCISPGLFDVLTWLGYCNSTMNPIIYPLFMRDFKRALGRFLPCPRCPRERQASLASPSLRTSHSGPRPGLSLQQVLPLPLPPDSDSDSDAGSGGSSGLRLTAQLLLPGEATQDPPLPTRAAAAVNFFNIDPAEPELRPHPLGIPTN

Structure (SMILES)	melting point [°C]	further results
CNc1cc(NS(=O)(=O)c2ccc(N)cc2)nc(NC)n1 [Ro 04-6790]		pharmacokinetics [1]: poor; Ki (5-HT6 receptor [2]): 50 nM
CNc1cc(NS(=O)(=O)c2ccc(N)cc2)cc(NC)n1 [Ro 63-0563]		pharmacokinetics [1]: poor; Ki (5-HT6 receptor [2]): 12 nM
COc1ccc(NS(=O)(=O)c2sc3ccc(Cl)cc3c2C)cc1N1CCNCC1 [SB-271046]		performance in the Morris water maze [3]: improved performance
CCC1C=NN(/C(=N/S(=O)(=O)c2ccccc2Cl)NCC2CCNCC2)C1 (stereo not shown) [compound 11]	131 to 138	
CCC1C=NN(/C(=N/S(=O)(=O)c2ccccc2Cl)Nc2ccccc2)C1 (stereo not shown) [compound 12]	128 to 130	
CCC1C=NN(/C(=N/S(=O)(=O)c2ccccc2Cl)N2CCNCC2)C1 (stereo not shown) [compound 16]	162 to 173	Ki (5-HT6 receptor [4]): 200 nM
CCN/C(=N\S(=O)(=O)c1ccccc1)N1CC(CC)C=N1 (stereo not shown) [compound 24]	43 to 45	
CCC1C=NN(/C(N)=N/S(=O)(=O)c2cccc(Cl)c2)C1 (stereo not shown) [compound 29]	141 to 142	
CCC1C=NN(/C(N)=N/S(=O)(=O)c2ccc(Cl)cc2)C1 (stereo not shown) [compound 30]	114 to 115	Kb (5-HT6 receptor [5]; [6]): 1260 nM
CCC1C=NN(/C(N)=N/S(=O)(=O)c2ccc(C)cc2)C1 (stereo not shown) [compound 31]	131 to 133	
N/C(=N\S(=O)(=O)c1cccc(Cl)c1)N1CC2(C=N1)CCCC2 [compound 97]	146 to 147	
CC1(C)C=NN(/C(N)=N/S(=O)(=O)c2ccc(Cl)s2)C1 [compound 102]	162 to 164	
CCC1C=NN(/C(N)=N/S(=O)(=O)c2ccc(Cl)s2)C1 (stereo not shown) [compound 105]	115 to 116	
N/C(=N\S(=O)(=O)c1ccc(Cl)s1)N1CC2(C=N1)CCCC2 [compound 107]	184	
CCC1CN(/C(=N/S(=O)(=O)c2cccc(Cl)c2)NC)N=C1C (stereo not shown) [compound 109]	155 to 156	
CCC1CN(/C(N)=N/S(=O)(=O)c2cccc(Cl)c2)N=C1C (stereo not shown) [compound 113]	121 to 123	

Structure (SMILES)	melting point [°C]	further results
CCN/C(=N\S(=O)(=O)c1c(Cl)nc2sccn12)N1CC(C)(C)C=N1 [compound 114]	139 to 141	
CC1=NN(/C(N)=N/S(=O)(=O)c2cccc(Cl)c2)CC1(C)C [compound 115]	135 to 137	
CC1=NN(/C(N)=N/S(=O)(=O)c2c(Cl)nc3sccn23)CC1(C)C [compound 117]	169 to 171	
CCC1CN(/C(N)=N/S(=O)(=O)c2ccc(Cl)s2)N=C1C (stereo not shown) [compound 121]	155 to 156	
CC1(C)C=NN(/C(N)=N/S(=O)(=O)c2c(Cl)nc3sccn23)C1 [compound 127]	198 to 199	
CCC1CN(/C(N)=N/S(=O)(=O)c2c(Cl)nc3sccn23)N=C1C (stereo not shown) [compound 130]	139 to 140	Ki (5-HT6 receptor [4]): 79.4 nM; Kb (5-HT6 receptor [5]; [6]): 6.31 nM
N/C(=N\S(=O)(=O)c1c(Cl)nc2sccn12)N1CC2(C=N1)CCCC2 [compound 131]	174 to 177	
CCN/C(=N\S(=O)(=O)c1c(Cl)nc2sccn12)N1CC2(C=N1)CCCC2 [compound 133]	146 to 147	Ki (5-HT6 receptor [4]): 1.58 nM; Kb (5-HT6 receptor [5]; [6]): 0.158 nM
CCN/C(=N\S(=O)(=O)c1ccc(N)cc1)N1CC(CC)C=N1 (stereo not shown) [compound 134]	122 to 125	
CN1CCN(/C(=N\S(=O)(=O)c2ccc(F)cc2)N2CCC(c3ccc(Cl)cc3)=N2)CC1 [compound 136]	179 to 184	
CN(C)/C(=N\S(=O)(=O)c1ccc(F)cc1)N1CCC(c2ccc(Cl)cc2)=N1 [compound 137]	149 to 150	
CCN/C(=N\S(=O)(=O)c1ccccc1Cl)N1CCC(c2ccccc2)=N1 [compound 138]	138 to 140	Ki (5-HT6 receptor [4]): 631 nM
CC1=NN(/C(N)=N/S(=O)(=O)c2cccc(Cl)c2)CC1c1ccccc1 (stereo not shown) [compound 141]	165 to 166	Ki (5-HT6 receptor [4]): 158 nM
CCN/C(=N\S(=O)(=O)c1ccccc1Cl)N1N=CCC1c1ccccc1 (stereo not shown) [compound 142]	164 to 166	Kb (5-HT6 receptor [5]): 50.1 nM
CCN/C(=N\S(=O)(=O)c1cccc(Cl)c1)N1N=CCC1c1ccccc1 (stereo not shown) [compound 143]	124 to 126	
CCN/C(=N\S(=O)(=O)N(C)C)N1CC(CC)C=N1 (stereo not shown) [compound 171]	60 to 61	
